The nature of data set [1]: Reversal of ABCG2-mediated multidrug resistance in human MCF-7/MX cells assessed as potentiation of SN-38-induced cytotoxicity incubated for 72 hrs by MTT assay.
The nature of data set [2]: Reversal of ABCC1-mediated multidrug resistance in human H69AR cells assessed as potentiation of daunorubicin-induced cytotoxicity incubated for 72 hrs by MTT assay.
A short description of data set [3]: Reversal of ABCB1-mediated multidrug resistance in human A2780/ADR cells assessed as potentiation of daunorubicin-induced cytotoxicity incubated for 72 hrs by MTT assay.
The nature of data set [4]: Reversal of ABCG2 (unknown origin)-mediated multidrug resistance in MDCK2 cells co-expressing BCRP (unknown origin) assessed as potentiation of SN-38-induced cytotoxicity incubated for 72 hrs by MTT assay.
Data set [5] is described as follows: Reversal of ABCB1 (unknown origin)-mediated multidrug resistance in MDCK2 cells co-expressing MDR1 (unknown origin) assessed as potentiation of daunorubicin-induced cytotoxicity incubated for 72 hrs by MTT assay.
Data set [6] is described as follows: Reversal of ABCC1 (unknown origin)-mediated multidrug resistance in MDCK2 cells co-expressing MRP1 (unknown origin) assessed as potentiation of daunorubicin-induced cytotoxicity incubated for 72 hrs by MTT assay.

The structures appear in SMILES notation.

In the case of `CC1CCc2c(sc3nc(-c4cccnc4)nc(N4CCN(C(C(N)=O)c5ccccc5)CC4)c23)C1` (stereo unspecified), the EC50 stood at 2730 nM in data set [1]; 2690 nM in data set [2]; 748 nM in data set [3]; 1310 nM in data set [4]; 361 nM in data set [5]; 728 nM in data set [6].

Source of the values: BindingDB's records for doi:10.1021/acs.jmedchem.8b01821 (Rheinische Friedrich-Wilhelms-University of Bonn, 2019).
